The values below come from US10717742B2, “Spiro[3H-indole-3,2′-pyrrolidin]-2(1H)-one compounds and derivatives as MDM2-P53 inhibitors” (Boehringer Ingelheim International GmbH, priority 2015, dated 2020).

The structures appear in SMILES notation. pIC50: −log10 of the molar value.

The pIC50 is the IC50 on a negative log10 scale, so that one unit is a factor of ten. A lower pIC50 goes with a large IC50.

The subject of the first series is acute lymphoblastic leukemia (ALL) xenograft models with mixed-lineage leukemia (MLL) rearrangement.
Assay: not given
Particulars: cited from earlier work.
As for `CCOc1cc(C(C)(C)C)ccc1C1=N[C@@](C)(c2ccc(Cl)cc2)[C@@](C)(c2ccc(Cl)cc2)N1C(=O)N1CCN(CCCS(C)(=O)=O)CC1` [RG-7112], the “efficacy in xenograft models” value was “particularly efficacious”.

The target in a further series is p53-MDM2 interaction (GST-MDM2 protein aa 23-117 / biotinylated p53 wt peptide) (Homo sapiens (Human), UniProt Q00987). In words: Mdm2-p53 Inhibition AlphaScreen. It is filed as binding. Particulars: GST-MDM2 (aa 23-117) / biotinylated p53 wt peptide.
Chain of p53-MDM2 interaction (GST-MDM2 protein aa 23-117 / biotinylated p53 wt peptide) (Q00987 23-117): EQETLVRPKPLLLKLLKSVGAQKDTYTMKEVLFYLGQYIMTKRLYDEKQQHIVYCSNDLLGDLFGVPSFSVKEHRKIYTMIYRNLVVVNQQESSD
For `CN(O)C(=O)c1ccc2c(c1)nc1n2CC[C@H]2[C@@H]1[C@H](c1cccc(Cl)c1F)[C@]1(C(=O)Nc3cc(Cl)ccc31)N2CC1CC1` [Ib-230], the pIC50 was 8.00.

For the compound `O=C(NO)c1ccc2c(c1)nc1n2CC[C@H]2[C@@H]1[C@H](c1cccc(Cl)c1F)[C@]1(C(=O)Nc3cc(Cl)ccc31)N2CC1CC1` [Ib-231], the pIC50 was 8.40.

Regarding `CC(C)CN1[C@H]2CCn3c(nc4cc(C(N)=O)ccc43)[C@H]2[C@H](c2cccc(Cl)c2F)[C@]12C(=O)Nc1cc(Cl)ccc12` [Ib-232], the negative-log IC50 (pIC50) is 8.52.

In turn, `CNC(=O)c1ccc2c(c1)nc1n2CC[C@H]2[C@@H]1[C@H](c1cccc(Cl)c1F)[C@]1(C(=O)Nc3cc(Cl)ccc31)N2CC(C)C` [Ib-233] showed a pIC50 of 8.40.

On to `CNC(=O)c1cc2nc3n(c2cc1OC)CC[C@H]1[C@@H]3[C@H](c2cccc(Cl)c2F)[C@]2(C(=O)Nc3cc(Cl)ccc32)N1CC1CC1` [Ib-235], for which the negative-log IC50 (pIC50) was 8.52.

On to `COc1cc2c(cc1C(=O)N(C)C)nc1n2CC[C@H]2[C@@H]1[C@H](c1cccc(Cl)c1F)[C@]1(C(=O)Nc3cc(Cl)ccc31)N2CC1CC1` [Ib-236], for which the pIC50 was 8.30.

For `CNC(=O)c1cc2nc3n(c2cc1C)CC[C@H]1[C@@H]3[C@H](c2cccc(Cl)c2F)[C@]2(C(=O)Nc3cc(Cl)ccc32)N1CC1CC1` [Ib-237], the negative-log IC50 (pIC50) is 8.00.

For the compound `NC(=O)c1ccc2nc3n(c2c1)CC[C@H]1[C@@H]3[C@H](c2cccc(Cl)c2F)[C@]2(C(=O)Nc3cc(Cl)ccc32)N1CC1CC1` [Ib-238], the pIC50 is 8.22.

As for `NC(=O)c1ccc2c(c1)nc1n2C[C@H]2[C@@H]1[C@H](c1cccc(Cl)c1F)[C@]1(C(=O)Nc3cc(Cl)ccc31)N2CC1CC1` [Ib-239], the pIC50 is 8.52.

`CNC(=O)c1ccc2c(c1)nc1n2C[C@H]2[C@@H]1[C@H](c1cccc(Cl)c1F)[C@]1(C(=O)Nc3cc(Cl)ccc31)N2CC1CC1` [Ib-240]: the negative logarithm of the IC50 (pIC50) was 8.52.

Consider `CCOc1cccc(CN2[C@H]3Cn4c(nc5cc(C(N)=O)ccc54)[C@H]3[C@H](c3cccc(Cl)c3F)[C@]23C(=O)Nc2cc(Cl)ccc23)c1` [Ib-241], for which the pIC50 is 8.40.

Turning to `CCOc1cccc(CN2[C@H]3Cn4c(nc5cc(C(N)=O)ccc54)[C@H]3[C@H](c3cccc(Cl)c3F)[C@]23C(=O)Nc2cc(Cl)ccc23)c1` [Ib-242], the pIC50 was 8.70.

In turn, `CCOc1cccc(CN2[C@@H]3Cn4c(nc5cc(C(N)=O)ccc54)[C@@H]3[C@@H](c3cccc(Cl)c3F)[C@@]23C(=O)Nc2cc(Cl)ccc23)c1` [Ib-243] had a pIC50 of 7.00.

For the compound `CCOc1cccc(CN2[C@H]3Cn4c(nc5cc(C(=O)NO)ccc54)[C@H]3[C@H](c3cccc(Cl)c3F)[C@]23C(=O)Nc2cc(Cl)ccc23)c1` [Ib-244], the pIC50 is 8.52.

As to `O=C1Nc2cc(Cl)ccc2[C@@]12[C@@H](c1cccc(Cl)c1F)[C@@H]1c3nc4cc(CO)ccc4n3CC[C@@H]1N2CC1CC1` [Ib-245], the negative logarithm of the IC50 (pIC50) was 7.70.

`Nc1ccc2c(c1)nc1n2CC[C@H]2[C@@H]1[C@H](c1cccc(Cl)c1F)[C@]1(C(=O)Nc3cc(Cl)ccc31)N2CC1CC1` [Ib-247]: the negative logarithm of the IC50 (pIC50) was 7.57.

`O=C1Nc2cc(Cl)ccc2[C@@]12[C@@H](c1cccc(Cl)c1F)[C@@H]1c3nc4cc(N5CCCCC5)ccc4n3CC[C@@H]1N2CC1CC1` [Ib-249] had a pIC50 of 6.62.

`O=C1Nc2cc(Cl)ccc2[C@@]12[C@@H](c1cccc(Cl)c1F)[C@@H]1c3nc4ccccc4n3CC[C@@H]1N2CC1CC1` [Ib-253] had a negative logarithm of the IC50 (pIC50) of 7.14.

In turn, `Cc1c(C(=O)O)ccn2c3c(nc12)[C@@H]1[C@H](C3)N(CC2CC2)[C@@]2(C(=O)Nc3cc(Cl)ccc32)[C@H]1c1ccnc(Cl)c1F` [Ic-23] had a negative logarithm of the IC50 (pIC50) of 8.22.

In turn, `CCOc1cccc(CN2[C@H]3Cc4c(nc5c(C)c(C(=O)O)ccn45)[C@H]3[C@H](c3ccnc(Cl)c3F)[C@]23C(=O)Nc2cc(Cl)ccc23)c1` [Ic-27] gave a negative-log IC50 (pIC50) of 7.89.

As for `Cc1c(C(=O)N(C)C)ccn2c3c(nc12)[C@@H]1[C@H](C3)N(CC2CC2)[C@@]2(C(=O)Nc3cc(Cl)ccc32)[C@H]1c1ccnc(Cl)c1F` [Ic-29], the pIC50 was 8.00.

Take `Cc1c(C(=O)N2CCCCC2)ccn2c3c(nc12)[C@@H]1[C@H](C3)N(CC2CC2)[C@@]2(C(=O)Nc3cc(Cl)ccc32)[C@H]1c1ccnc(Cl)c1F` [Ic-35]: the negative logarithm of the IC50 (pIC50) was 8.00.

As for `Cc1c(C(=O)N2CCOCC2)ccn2c3c(nc12)[C@@H]1[C@H](C3)N(CC2CC2)[C@@]2(C(=O)Nc3cc(Cl)ccc32)[C@H]1c1ccnc(Cl)c1F` [Ic-37], the pIC50 was 8.00.

Another series relates to solid tumor xenograft models.
Assay: not given
Particulars: cited from earlier work.
For the compound `CCOc1cc(C(C)(C)C)ccc1C1=N[C@@](C)(c2ccc(Cl)cc2)[C@@](C)(c2ccc(Cl)cc2)N1C(=O)N1CCN(CCCS(C)(=O)=O)CC1` [RG-7112], the tumor growth inhibition result is on record as “induced tumor growth inhibition”.

For a further series, the system named is human acute myeloid leukemia (AML) and human prostate tumor xenograft models harboring p53 wild-type.
Assay: not given
Conditions: cited from earlier work.
As for `CCOc1cc(C(C)(C)C)ccc1C1=N[C@@](C)(c2ccc(Cl)cc2)[C@@](C)(c2ccc(Cl)cc2)N1C(=O)N1CCN(CCCS(C)(=O)=O)CC1` [RG7112], the “antiproliferative and proapoptotic activity” value was “antiproliferative and proapoptotic activity”.

In another series the test system is p53 wild-type vs. p53 mutant cell lines.
Assay: not given
Conditions: in vitro, PPTP of the NCI; cited from earlier work.
For the compound `CCOc1cc(C(C)(C)C)ccc1C1=N[C@@](C)(c2ccc(Cl)cc2)[C@@](C)(c2ccc(Cl)cc2)N1C(=O)N1CCN(CCCS(C)(=O)=O)CC1` [RG-7112], the “cytotoxic activity, median IC50” value was “lower median IC50 values for p53 wild-type vs. p53 mutant cell lines”.
